Source: US8791132B2, “Compounds and methods for treatment of hypertension” (Medivation Technologies, Inc., priority 2011, dated 2014)
Like-named read-outs stand apart in the source and are kept apart here.

Legend:
[1] = biological target: T1, human recombinant adrenergic α2B receptor (Homo sapiens, UniProt P18089); assay: Radioligand binding, adrenergic α2B ([3H]Rauwolscine); conditions: for Percentage inhibition of ligand binding, Adrenergic α2B / Percentage inhibition of ligand binding, Adrenergic α2B (0.03 μM): 0.03 µM; for Ki: read-out: Ki α2B; for inhibition at 0.1 µM: read-out: Percentage inhibition of ligand binding, Adrenergic α2B (0.1 μM), compound at 0.1 μM
T1 construct: expressed in transfected cells; host or cells: CHO-K1
T1 sequence (P18089 1-450): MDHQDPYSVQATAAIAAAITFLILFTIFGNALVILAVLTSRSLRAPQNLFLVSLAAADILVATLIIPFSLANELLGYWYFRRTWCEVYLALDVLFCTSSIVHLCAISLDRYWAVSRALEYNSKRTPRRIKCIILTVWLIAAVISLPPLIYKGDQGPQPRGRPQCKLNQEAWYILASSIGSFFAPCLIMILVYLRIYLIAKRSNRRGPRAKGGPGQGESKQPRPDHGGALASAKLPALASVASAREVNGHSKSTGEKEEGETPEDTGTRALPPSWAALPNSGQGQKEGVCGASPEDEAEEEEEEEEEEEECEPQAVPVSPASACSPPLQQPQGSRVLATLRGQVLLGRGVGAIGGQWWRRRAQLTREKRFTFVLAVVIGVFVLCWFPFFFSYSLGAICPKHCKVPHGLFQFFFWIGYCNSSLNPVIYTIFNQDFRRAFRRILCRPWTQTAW
Outline: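 Values are percent inhibition of specific radioligand binding. The receptor, expressed in CHO-K1 cells, was exposed to 2.5 nM [3H]Rauwolscine at 25° C for 60 min, with 10 μM Prazosin marking non-specific binding.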

[2] = biological target: T2, human recombinant adrenergic α2A receptor (Homo sapiens, UniProt P08913); assay: Radioligand binding, adrenergic α2A ([3H]MK-912); conditions: for Percentage inhibition of ligand binding, Adrenergic α2A / Percentage inhibition of ligand binding, Adrenergic α2A (0.1 μM): 0.1 µM
T2 construct: expressed in transfected cells; host or cells: insect Sf9 cells
T2 sequence (P08913 1-465): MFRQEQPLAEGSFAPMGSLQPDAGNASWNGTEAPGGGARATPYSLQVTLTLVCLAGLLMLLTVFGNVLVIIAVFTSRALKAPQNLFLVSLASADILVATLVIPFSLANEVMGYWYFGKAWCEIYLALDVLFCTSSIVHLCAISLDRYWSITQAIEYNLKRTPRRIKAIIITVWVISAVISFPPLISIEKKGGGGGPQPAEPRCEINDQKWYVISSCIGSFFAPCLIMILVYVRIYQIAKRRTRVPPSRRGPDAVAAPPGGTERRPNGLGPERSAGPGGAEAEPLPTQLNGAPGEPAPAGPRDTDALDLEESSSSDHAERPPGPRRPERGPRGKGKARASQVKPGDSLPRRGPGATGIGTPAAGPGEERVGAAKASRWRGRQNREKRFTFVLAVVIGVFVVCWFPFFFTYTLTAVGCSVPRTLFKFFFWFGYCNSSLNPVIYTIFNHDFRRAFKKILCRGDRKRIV
Outline: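 Displacement of 1 nM [3H]MK-912 from receptor produced in insect Sf9 cells was measured after 60 min at 25 °C. Readout: percent inhibition of specific binding.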

[3] = biological target: T3, rat adrenergic α1B receptor (Rattus norvegicus, UniProt P15823); assay: Radioligand binding, adrenergic α1B ([3H]Prazosin); conditions: for Percentage inhibition of ligand binding, Adrenergic α1B / Percentage inhibition of ligand binding, Adrenergic α1B (0.1 μM): compound at 0.1 μM, 0.1 µM; for Percentage inhibition of ligand binding, Adrenergic α1B: repeat assays, each datapoint shown; for inhibition at 0.03 µM: read-out: Percentage inhibition of ligand binding, Adrenergic α1B (0.03 μM), compound at 0.03 μM
T3 construct: rat adrenergic α1B receptor obtained from Wistar Rat liver; from tissue; host or cells: Wistar rat liver
T3 sequence (P15823 1-515): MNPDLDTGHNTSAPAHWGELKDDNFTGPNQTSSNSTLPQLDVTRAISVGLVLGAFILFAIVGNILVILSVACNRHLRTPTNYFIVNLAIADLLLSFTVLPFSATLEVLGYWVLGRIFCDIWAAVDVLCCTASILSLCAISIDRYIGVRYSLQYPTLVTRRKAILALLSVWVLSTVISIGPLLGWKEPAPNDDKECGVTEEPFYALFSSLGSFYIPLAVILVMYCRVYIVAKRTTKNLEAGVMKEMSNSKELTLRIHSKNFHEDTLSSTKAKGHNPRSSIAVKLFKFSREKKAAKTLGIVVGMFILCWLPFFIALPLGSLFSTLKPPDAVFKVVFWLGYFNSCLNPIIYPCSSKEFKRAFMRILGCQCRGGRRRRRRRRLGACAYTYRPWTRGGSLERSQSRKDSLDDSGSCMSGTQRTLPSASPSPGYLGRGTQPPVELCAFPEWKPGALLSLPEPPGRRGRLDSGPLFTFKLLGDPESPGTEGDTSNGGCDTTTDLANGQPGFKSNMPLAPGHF
Outline: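 Specific binding, taken as total minus that remaining with 10 μM phentolamine, is measured after filtration and counting. Rat liver receptor preparation and 0.25 nM [3H]prazosin are incubated with compound in 50 mM Tris-HCl (pH 7.4, 0.5 mM EDTA) at 25° C for 60 min. Activity is reported as percent inhibition.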

[4] = read-out: Percentage inhibition of ligand binding, Adrenergic α2B (0.03 μM), compound at 0.03 μM, [3H]Rauwolscine, repeat datapoints each shown
[5] = read-out: Percentage inhibition of ligand binding, Adrenergic α2A (0.1 μM), compound at 0.1 μM, [3H]MK-912, repeat datapoints each shown
[6] = read-out: Percentage inhibition of ligand binding, Adrenergic α1B (0.1 μM), compound at 0.1 μM, [3H]Prazosin, repeat datapoints each shown
[7] = compound at 0.03 μM, [3H]Rauwolscine, repeat assays, each datapoint shown
[8] = compound at 0.1 μM, [3H]MK-912, repeat assays, each datapoint shown
[9] = [3H]Prazosin, repeat datapoints each shown
[10] = [3H]Rauwolscine, repeat datapoints each shown
[11] = compound at 0.1 μM, [3H]MK-912, repeat datapoints each shown
[12] = compound at 0.03 μM, [3H]Rauwolscine, repeat datapoints each shown
[13] = compound at 0.03 μM, [3H]Rauwolscine, repeat assays, each datapoint shown, read-out: Percentage inhibition of ligand binding, Adrenergic α2B
[14] = compound at 0.1 μM, [3H]MK-912, repeat assays, each datapoint shown, read-out: Percentage inhibition of ligand binding, Adrenergic α2A
[15] = 0.03 μM compound, read-out: Percentage inhibition of ligand binding, Adrenergic α2B
[16] = 0.1 μM compound, read-out: Percentage inhibition of ligand binding, Adrenergic α2A
[17] = 0.1 μM compound, read-out: Percentage inhibition of ligand binding, Adrenergic α1B

Compound: Cc1ccc2c(c1)c1c(n2CC(C)(O)c2cnccc2C(=O)O)CCN(C)C1 (stereo not shown) [compound 179]
- inhibition at 0.03 µM [1, 4]: 8%
- inhibition at 0.1 µM [2, 5]: 6%
- inhibition at 0.1 µM [3, 6]: 6%

Compound: Cc1ccc2c(c1)c1c(n2CC(O)c2ccncc2)CN(C)CC1 (stereo not shown) [8a]
- Percentage inhibition of ligand binding, Adrenergic α2B [1, 7]: 22%
- Percentage inhibition of ligand binding, Adrenergic α2A [2, 8]: 15%
- Percentage inhibition of ligand binding, Adrenergic α1B ([3]; [3H]Prazosin): 39%

Compound: Cc1ccc2c(c1)c1c(n2CC(O)c2ccncc2)CCN2CCCC12 (single isomer, unassigned) [129c]
- Ki [1]: 0.00077 µM
- inhibition at 0.03 µM [1, 4]: 100%
- Ki [2]: 0.0886 µM
- Percentage inhibition of ligand binding, Adrenergic α1B (0.1 μM) [3, 9]: 96%
- inhibition at 0.03 µM [3, 9]: 86%
- inhibition at 0.1 µM [3, 6]: 94%

Compound: Cc1ccc2c(c1)c1c(n2CC(C)(O)c2cccnc2)CNCC1 (stereo not shown) [128b]
- inhibition at 0.03 µM [1, 4]: 54%
- inhibition at 0.1 µM [2, 5]: 22%
- inhibition at 0.1 µM [3, 6]: 45%

Compound: CN1CCc2c(c3c(Cl)cccc3n2CCc2ccccc2)C1 [compound 214]
- Ki [1]: 0.0129 µM
- inhibition at 0.03 µM [1, 4]: 48%
- inhibition at 0.1 µM [1, 10]: 80%
- Ki [2]: 0.0227 µM
- Percentage inhibition of ligand binding, Adrenergic α2A (0.1 μM) [2, 11]: 64%
- inhibition at 0.03 µM ([2]; read-out: Percentage inhibition of ligand binding, Adrenergic α2A (0.03 μM), compound at 0.03 μM, [3H]MK-912, repeat datapoints each shown): 37%
- inhibition at 0.1 µM [2, 5]: 58%
- inhibition at 0.1 µM [3, 6]: 18%

Compound: Cc1ccc2c(c1)c1c(n2CC(C)(OC(=O)C(C)C)c2cccnc2)CCN(C)C1 (single isomer, unassigned) [146a]
- Percentage inhibition of ligand binding, Adrenergic α2B (0.03 μM) [1, 12]: 37%
- Percentage inhibition of ligand binding, Adrenergic α2A (0.1 μM) [2, 11]: −1%
- Percentage inhibition of ligand binding, Adrenergic α1B (0.1 μM) [3, 9]: 41%

Compound: CC(O)(Cn1c2c(c3cc(Cl)cnc31)CNCC2)c1ccncc1 (single isomer, unassigned) [12a, 1-(3-chloro-5,6,7,8-tetrahydro-1,6,9-triaza-fluoren-9-yl)-2-pyridin-4-yl-propan-2-ol]
- inhibition at 0.03 µM [1, 13]: 24%
- inhibition at 0.1 µM [2, 14]: 3%
- Percentage inhibition of ligand binding, Adrenergic α1B ([3]; [3H]Prazosin): 23%

Compound: Cc1ccc2c(c1)c1c(n2CC(C)(O)c2cccnc2)CC(C)N(C)C1 (single isomer, unassigned) [II-146c, 2-(pyridin-3-yl)-1-(2,3,8-trimethyl-3,4-dihydro-1H-pyrido[4,3-b]indol-5(2H)-yl)propan-2-ol]
- Percentage inhibition of ligand binding, Adrenergic α2B (0.03 μM) [1, 12]: 42%
- Percentage inhibition of ligand binding, Adrenergic α2A (0.1 μM) [2, 11]: 8%
- Percentage inhibition of ligand binding, Adrenergic α1B (0.1 μM) [3, 9]: 17%

Compound: Cc1ccc2c(c1)c1c(n2CC(CO)c2ccncc2)CCN(C)C1 (stereo not shown) [II-225]
- inhibition at 0.03 µM [1, 4]: 8%
- inhibition at 0.1 µM [2, 5]: -1%
- inhibition at 0.1 µM [3, 6]: 9%

Compound: Cc1ccc2c(c1)c1c(n2C(C)(C)C(O)c2ccccc2)CCN(C)C1 (stereo not shown) [II-187]
- inhibition at 0.03 µM [1, 4]: 27%
- inhibition at 0.1 µM [2, 5]: 10%
- inhibition at 0.1 µM [3, 6]: 54%

Compound: Cc1ccc2c(c1)c1c(n2CC(O)c2ccncc2)C(C)N(C)CC1 (stereo not shown) [II-73]
- inhibition at 0.03 µM [1, 15]: 33%
- inhibition at 0.1 µM [2, 16]: 28%
- inhibition at 0.1 µM [3, 17]: 34%

Compound: Cc1ccc2c(c1)c1c(n2CC(O)c2cc[nH]c(=O)c2)CCN2CCCC12 (single isomer, unassigned) [II-132b, 4-(2-(2,3,5,6-tetrahydro-10-methyl-1H-indolizino[7,8-b]indol-7(11cH)-yl)-1-hydroxyethyl)pyridin-2(1H)-one]
- Percentage inhibition of ligand binding, Adrenergic α2B (0.03 μM) [1, 12]: 70%
- Percentage inhibition of ligand binding, Adrenergic α2A (0.1 μM) [2, 11]: 22%
- Percentage inhibition of ligand binding, Adrenergic α1B (0.1 μM) [3, 9]: 68%

Compound: Cc1cnc2c(c1)c1c(n2CCc2ccc(C(N)=O)nc2)CCN2CCCC12 (stereo not shown) [II-243, 5-[2-(9-methyl-1,2,3,4,5,10c-hexahydro-3a,6,7-triaza-cyclopenta[c]fluoren-6-yl)-ethyl]-pyridine-2-carboxylic acid amide]
- Percentage inhibition of ligand binding, Adrenergic α2B (0.03 μM) [1, 12]: 61%
- Ki [1]: 0.00944 µM
- inhibition at 0.03 µM [1, 4]: 58%
- inhibition at 0.1 µM [1, 10]: 82%
- inhibition at 0.1 µM [2, 5]: 19%
- Percentage inhibition of ligand binding, Adrenergic α1B (0.1 μM) [3, 9]: 93%
- inhibition at 0.03 µM [3, 9]: 79%
- inhibition at 0.1 µM [3, 6]: 91%

Compound: OC(Cn1c2c(c3cc(Cl)cnc31)CN1CCCC1C2)c1ccncc1 (stereo not shown) [II-86]
- inhibition at 0.03 µM [1, 15]: 35%
- inhibition at 0.1 µM [2, 16]: 27%
- inhibition at 0.1 µM [3, 17]: 44%

Compound: Cc1ccc2c(c1)c1c(n2CC(O)c2ccccn2)CN(C)CC1 (single isomer, unassigned) [22a]
- inhibition at 0.03 µM [1, 13]: 22%
- Percentage inhibition of ligand binding, Adrenergic α2A [2, 8]: 16%
- Percentage inhibition of ligand binding, Adrenergic α1B ([3]; [3H]Prazosin): 19%

Compound: Cc1ccc2c(c1)c1c(n2CC(O)c2ccncc2)CN2CCC1C2 (stereo not shown) [II-69]
- inhibition at 0.03 µM [1, 15]: 14%
- inhibition at 0.1 µM [2, 16]: 11%
- inhibition at 0.1 µM [3, 17]: 45%

Compound: CN1CCc2c(c3cccc(Cl)c3n2CC(C)(O)c2cccnc2)C1 (single isomer, unassigned) [57a, 1-(6-chloro-2-methyl-1,2,3,4-tetrahydro-pyrido[4,3-b]indol-5-yl)-2-pyridin-3-yl-propan-2-ol]
- Percentage inhibition of ligand binding, Adrenergic α2B [1, 7]: 16%
- inhibition at 0.1 µM [2, 14]: 22%
- Percentage inhibition of ligand binding, Adrenergic α1B ([3]; [3H]Prazosin): 3%
